Measured values published in ChEMBL document CHEMBL3352542, “Synthesis, biological evaluation and molecular modeling study of 2-(1,3,4-thiadiazolyl-thio and 4-methyl-thiazolyl-thio)-quinazolin-4-ones as a new class of DHFR inhibitors” (Bioorg Med Chem Lett, 2014).
pIC50: −log10 of the molar value. Calls of active or inactive are those of the source. The calls are words filed in the database; no cut-off is given here.

Assays:
[1] = tested on: Staphylococcus aureus; assay: Antimicrobial activity against Staphylococcus aureus assessed as inhibition of visible growth after 24 hrs by disc-diffusion method; format: functional, organism-based
[2] = tested on: Escherichia coli; assay: Antimicrobial activity against Escherichia coli assessed as inhibition of visible growth after 24 hrs by disc-diffusion method; format: functional, organism-based
[3] = tested on: Candida albicans; assay: Antimicrobial activity against Candida albicans assessed as inhibition zone at 200 ug/disk after 24 hrs by disc-diffusion method; format: functional; settings: for zone of inhibition at 200 µg/disc: read-out: IZ
[4] = tested on: Bacillus subtilis; assay: Antimicrobial activity against Bacillus subtilis assessed as inhibition zone at 200 ug/disk after 24 hrs by disc-diffusion method; format: functional; settings: for zone of inhibition at 200 µg/disc: read-out: IZ
[5] = tested on: Staphylococcus aureus; assay: Antimicrobial activity against Staphylococcus aureus assessed as inhibition zone at 200 ug/disk after 24 hrs by disc-diffusion method; format: functional; settings: for zone of inhibition at 200 µg/disc: read-out: IZ
[6] = tested on: Bacillus subtilis; assay: Antimicrobial activity against Bacillus subtilis assessed as inhibition of visible growth after 24 hrs by disc-diffusion method; format: functional, organism-based
[7] = tested on: Pseudomonas aeruginosa; assay: Antimicrobial activity against Pseudomonas aeruginosa assessed as inhibition of visible growth after 24 hrs by disc-diffusion method; format: functional, organism-based
[8] = tested on: Escherichia coli; assay: Antimicrobial activity against Escherichia coli assessed as inhibition zone at 200 ug/disk after 24 hrs by disc-diffusion method; format: functional; settings: for zone of inhibition at 200 µg/disc: read-out: IZ
[9] = tested on: Candida albicans; assay: Antimicrobial activity against Candida albicans assessed as inhibition of visible growth after 24 hrs by disc-diffusion method; format: functional, organism-based
[10] = tested on: Pseudomonas aeruginosa; assay: Antimicrobial activity against Pseudomonas aeruginosa assessed as inhibition zone at 200 ug/disk after 24 hrs by disc-diffusion method; format: functional; settings: for zone of inhibition at 200 µg/disc: read-out: IZ
[11] = Growth inhibition of human HCT15 cells at 10 uM after 48 hrs; format: functional; settings: HCT-15, 48 h, read-out: GI
[12] = tested on: SNB-19; assay: Growth inhibition of human SNB19 cells at 10 uM after 48 hrs; format: functional; settings: SNB-19, 48 h, read-out: GI
[13] = Growth inhibition of human RPMI8226 cells at 10 uM after 48 hrs; format: functional; settings: RPMI-8226, 48 h, read-out: GI
[14] = tested on: 786-0; assay: Growth inhibition of human 786-0 cells at 10 uM after 48 hrs; format: functional; settings: 786-0, 48 h, read-out: GI
[15] = tested on: KM12; assay: Growth inhibition of human KM12 cells at 10 uM after 48 hrs; format: functional; settings: KM12, 48 h, read-out: GI
[16] = tested on: U-251; assay: Growth inhibition of human U251 cells at 10 uM after 48 hrs; format: functional; settings: U-251, 48 h, read-out: GI
[17] = Growth inhibition of human HCT116 cells at 10 uM after 48 hrs; format: functional; settings: HCT-116, 48 h, read-out: GI
[18] = Growth inhibition of human PC3 cells at 10 uM after 48 hrs; format: functional; settings: PC-3, 48 h, read-out: GI
[19] = Growth inhibition of human RXF393 cells at 10 uM after 48 hrs; format: functional; settings: RXF 393, 48 h, read-out: GI
[20] = tested on: MDA-MB-231; assay: Growth inhibition of human MDA-MB-231 cells at 10 uM after 48 hrs; format: functional; settings: MDA-MB-231, 48 h, read-out: GI
[21] = tested on: CAKI-1; assay: Growth inhibition of human CAKI-1 cells at 10 uM after 48 hrs; format: functional; settings: CAKI-1, 48 h, read-out: GI
[22] = Growth inhibition of human OVCAR8 cells at 10 uM after 48 hrs; format: functional; settings: OVCAR-8, 48 h, read-out: GI
[23] = Growth inhibition of human LOXIMVI cells at 10 uM after 48 hrs; format: functional; settings: LOX IMVI, read-out: GI
[24] = molecular target: T1, Dihydrofolate reductase (Bos taurus, UniProt P00376); assay: Inhibition of bovine liver DHFR
T1 sequence (P00376 whole entry): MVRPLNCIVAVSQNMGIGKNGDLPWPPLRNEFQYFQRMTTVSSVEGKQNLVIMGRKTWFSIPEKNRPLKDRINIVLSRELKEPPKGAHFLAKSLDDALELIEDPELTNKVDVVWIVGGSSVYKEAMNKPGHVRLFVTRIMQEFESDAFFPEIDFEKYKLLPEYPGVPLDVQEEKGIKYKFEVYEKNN

[25] = Growth inhibition of human UACC62 cells at 10 uM after 48 hrs; format: functional; settings: UACC-62, 48 h, read-out: GI
[26] = tested on: SK-MEL-5; assay: Growth inhibition of human SK-MEL-5 cells at 10 uM after 48 hrs; format: functional; settings: SK-MEL-5, 48 h, read-out: GI
[27] = tested on: SNB-75; assay: Growth inhibition of human SNB75 cells at 10 uM after 48 hrs; format: functional; settings: SNB-75, 48 h, read-out: GI
[28] = tested on: SF-268; assay: Growth inhibition of human SF268 cells at 10 uM after 48 hrs; format: functional; settings: SF-268, 48 h, read-out: GI
[29] = Growth inhibition of human UO31 cells at 10 uM after 48 hrs; format: functional; settings: UO-31, 48 h, read-out: GI
[30] = tested on: A498; assay: Growth inhibition of human A498 cells at 10 uM after 48 hrs; format: functional; settings: A498, 48 h, read-out: GI
[31] = Growth inhibition of human HOP92 cells at 10 uM after 48 hrs; format: functional; settings: HOP-92, 48 h, read-out: GI
[32] = Growth inhibition of human OVCAR5 cells at 10 uM after 48 hrs; format: functional; settings: OVCAR-5, 48 h, read-out: GI
[33] = tested on: K562; assay: Growth inhibition of human K562 cells at 10 uM after 48 hrs; format: functional; settings: K562, 48 h, read-out: GI
[34] = Growth inhibition of human SF295 cells at 10 uM after 48 hrs; format: functional; settings: SF-295, 48 h, read-out: GI
[35] = Growth inhibition of human NCI-ADR-RES cells at 10 uM after 48 hrs; format: functional; settings: read-out: GI
[36] = Growth inhibition of human BT549 cells at 10 uM after 48 hrs; format: functional; settings: BT-549, 48 h, read-out: GI
[37] = Growth inhibition of human OVCAR4 cells at 10 uM after 48 hrs; format: functional; settings: OVCAR-4, 48 h, read-out: GI
[38] = tested on: A549; assay: Growth inhibition of human A549 cells at 10 uM after 48 hrs; format: functional; settings: A549, 48 h, read-out: GI
[39] = tested on: SR; assay: Growth inhibition of human SR cells at 10 uM after 48 hrs; format: functional; settings: read-out: GI
[40] = tested on: NCI-H23; assay: Growth inhibition of human NCI-H23 cells at 10 uM after 48 hrs; format: functional; settings: NCI-H23, 48 h, read-out: GI
[41] = Growth inhibition of human MOLT4 cells at 10 uM after 48 hrs; format: functional; settings: MOLT-4, 48 h, read-out: GI
[42] = Growth inhibition of human SF539 cells at 10 uM after 48 hrs; format: functional; settings: SF-539, 48 h, read-out: GI
[43] = tested on: M14; assay: Growth inhibition of human M14 cells at 10 uM after 48 hrs; format: functional; settings: M14, 48 h, read-out: GI
[44] = Growth inhibition of human UACC257 cells at 10 uM after 48 hrs; format: functional; settings: UACC-257, 48 h, read-out: GI
[45] = tested on: SN12C; assay: Growth inhibition of human SN12C cells at 10 uM after 48 hrs; format: functional; settings: read-out: GI
[46] = Growth inhibition of human Hs 578T cells at 10 uM after 48 hrs; format: functional; settings: read-out: GI
[47] = tested on: T47D; assay: Growth inhibition of human T47D cells at 10 uM after 48 hrs; format: functional; settings: read-out: GI
[48] = tested on: HT-29; assay: Growth inhibition of human HT-29 cells at 10 uM after 48 hrs; format: functional; settings: HT-29, 48 h, read-out: GI

GENTAMICIN
Activity [1]: Active | Activity [2]: Active | inhibition zone (IZ) [3]: 19 mm | inhibition zone (IZ) [4]: 25 mm | inhibition zone (IZ) [5]: 27 mm | Activity [6]: Active | Activity [7]: Active | inhibition zone (IZ) [8]: 18 mm | Activity [9]: Active | inhibition zone (IZ) [10]: 21 mm

CC(=O)NS(=O)(=O)c1ccc(N)cc1 [SULFACETAMIDE]
Activity [1]: Active | Activity [2]: Active | zone of inhibition at 200 µg/disc [3]: 25 mm | zone of inhibition at 200 µg/disc [4]: 22 mm | zone of inhibition at 200 µg/disc [5]: 20 mm | Activity [6]: Active | Activity [7]: Active | zone of inhibition at 200 µg/disc [8]: 18 mm | Activity [9]: Active | zone of inhibition at 200 µg/disc [10]: 28 mm

COc1ccc(-n2c(Sc3sc(N)nc3C)nc3ccc(C)cc3c2=O)cc1
inhibition of growth at 10 µM [11]: 25.3% | inhibition of growth at 10 µM [12]: 15.5% | inhibition of growth at 10 µM [13]: 16.2% | inhibition of growth at 10 µM [14]: 12% | zone of inhibition at 200 µg/disc [3]: 8 mm | zone of inhibition at 200 µg/disc [4]: 8 mm | inhibition of growth at 10 µM [15]: 19.4% | inhibition of growth at 10 µM [16]: 15.7% | inhibition of growth at 10 µM [17]: 19.1% | inhibition of growth at 10 µM [18]: 15.9% | inhibition of growth at 10 µM [19]: 28% | inhibition of growth at 10 µM [20]: 25% | inhibition of growth at 10 µM [21]: 11.5% | inhibition of growth at 10 µM [22]: 13.4% | zone of inhibition at 200 µg/disc [5]: 8 mm | inhibition of growth at 10 µM [23]: 11% | pIC50 [24]: 5.15 | inhibition of growth at 10 µM [25]: 15.4% | inhibition of growth at 10 µM [26]: 15.7% | inhibition of growth at 10 µM [27]: 11.9% | inhibition of growth at 10 µM [28]: 10.6% | inhibition of growth at 10 µM [29]: 26.2% | inhibition of growth at 10 µM [30]: 24.6% | inhibition of growth at 10 µM [31]: 42.3% | inhibition of growth at 10 µM [32]: 17.9% | inhibition of growth at 10 µM [33]: 13% | inhibition of growth at 10 µM [34]: 10.6% | inhibition of growth at 10 µM [35]: 11.3% | inhibition of growth at 10 µM [36]: 20.6% | zone of inhibition at 200 µg/disc [8]: 8 mm | inhibition of growth at 10 µM [37]: 12.9% | inhibition of growth at 10 µM [38]: 15.6% | zone of inhibition at 200 µg/disc [10]: 8 mm

Cc1ccc2nc(Sc3sc(N)nc3C)n(-c3ccc(Cl)cc3)c(=O)c2c1
inhibition of growth at 10 µM [39]: 49.2% | inhibition of growth at 10 µM [11]: 27.7% | inhibition of growth at 10 µM [12]: 11.6% | inhibition of growth at 10 µM [40]: 10.1% | inhibition of growth at 10 µM [14]: 29.3% | zone of inhibition at 200 µg/disc [3]: 8 mm | zone of inhibition at 200 µg/disc [4]: 8 mm | inhibition of growth at 10 µM [15]: 24.6% | inhibition of growth at 10 µM [16]: 21.5% | inhibition of growth at 10 µM [17]: 22.8% | inhibition of growth at 10 µM [18]: 28.6% | inhibition of growth at 10 µM [19]: 28.5% | inhibition of growth at 10 µM [41]: 19% | inhibition of growth at 10 µM [20]: 13% | inhibition of growth at 10 µM [21]: 11.2% | inhibition of growth at 10 µM [22]: 10.8% | zone of inhibition at 200 µg/disc [5]: 8 mm | inhibition of growth at 10 µM [42]: 13.9% | inhibition of growth at 10 µM [23]: 16.5% | pIC50 [24]: 5.15 | inhibition of growth at 10 µM [25]: 26% | inhibition of growth at 10 µM [43]: 15.6% | inhibition of growth at 10 µM [26]: 16.3% | inhibition of growth at 10 µM [28]: 13.2% | inhibition of growth at 10 µM [29]: 46% | inhibition of growth at 10 µM [30]: 53% | inhibition of growth at 10 µM [31]: 43.3% | inhibition of growth at 10 µM [32]: 12.1% | inhibition of growth at 10 µM [33]: 15.6% | inhibition of growth at 10 µM [44]: 13.6% | inhibition of growth at 10 µM [34]: 18.2% | inhibition of growth at 10 µM [35]: 17.5% | inhibition of growth at 10 µM [36]: 33.1% | zone of inhibition at 200 µg/disc [8]: 8 mm | inhibition of growth at 10 µM [38]: 16.9% | inhibition of growth at 10 µM [45]: 12.8% | inhibition of growth at 10 µM [46]: 12.6% | inhibition of growth at 10 µM [47]: 12.4% | zone of inhibition at 200 µg/disc [10]: 8 mm | inhibition of growth at 10 µM [48]: 11.7%
